Data reported in ChEMBL document CHEMBL1201862, “PubChem BioAssay data set” (2004).
Calls of active or inactive are those of the source.

Tests used:
[1] = biological target: G-protein coupled receptor 55 (Homo sapiens, UniProt Q9Y2T6); assay: inhibition of LPI-stimulated GPR55 beta-arrestin translocation – imaging, U2OS, beta-arrestin-GFP, LPI agonist, primary screen (AID 2013); assay type: functional;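 note: antagonist potency measured as reduced agonist-driven arrestin aggregation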
[2] = Luminescence Cell-Based Dose Confirmation HTS to Identify Activators of 5'UTR Stem-Loop Driven Alpha-Synuclein mRNA Translation in H4 Neuroglioblastoma Cells. [Related pubchem assays: 1829 (Project Summary), 1814 (Primary HTS)]; assay type: functional
[3] = Luminescence Cell-Based Dose Response HTS to Identify Activators of Luciferase Translation or Activity in H4 […] Cells. [Related pubchem assays: 1829 (Project Summary), 1814 (Primary HTS)]; assay type: functional
H4 = assay: Luminescence Cell-Based Dose Response HTS to Identify Activators of 5'UTR Stem-Loop Driven Prion Protein mRNA Translation in H4 Neuroglioblastoma Cells. [Related pubchem assays: 1829 (Project Summary), 1814 (Primary HTS)]; assay type: functional; conditions: Homo sapiens
[4] = microbe, parasite or virus in culture; assay type: functional; conditions: Mycobacterium tuberculosis
[5] = THP-1 cell cytotoxicity, dose response, cytotoxicity control for non-replicating M. tuberculosis project (AID 489025); assay type: functional
[6] = HepG2 cell cytotoxicity, dose response, cytotoxicity control for non-replicating M. tuberculosis project (AID 489018); assay type: functional; conditions: Mycobacterium tuberculosis
[7] = Vero E6 cell cytotoxicity, dose response, cytotoxicity control for non-replicating M. tuberculosis project, secondary assay (AID 492998); assay type: functional, VeroE6; conditions: Vero C1008
cells = assay type: functional
[8] = biological target: T1, Replicative DNA helicase DnaB (Mycobacterium tuberculosis, UniProt P9WMR3); assay: DnaB intein splicing inhibitors, dose response, biochemical, cell-free fluorescence (AID 449749); assay type: functional
T1 sequence (P9WMR3 whole entry): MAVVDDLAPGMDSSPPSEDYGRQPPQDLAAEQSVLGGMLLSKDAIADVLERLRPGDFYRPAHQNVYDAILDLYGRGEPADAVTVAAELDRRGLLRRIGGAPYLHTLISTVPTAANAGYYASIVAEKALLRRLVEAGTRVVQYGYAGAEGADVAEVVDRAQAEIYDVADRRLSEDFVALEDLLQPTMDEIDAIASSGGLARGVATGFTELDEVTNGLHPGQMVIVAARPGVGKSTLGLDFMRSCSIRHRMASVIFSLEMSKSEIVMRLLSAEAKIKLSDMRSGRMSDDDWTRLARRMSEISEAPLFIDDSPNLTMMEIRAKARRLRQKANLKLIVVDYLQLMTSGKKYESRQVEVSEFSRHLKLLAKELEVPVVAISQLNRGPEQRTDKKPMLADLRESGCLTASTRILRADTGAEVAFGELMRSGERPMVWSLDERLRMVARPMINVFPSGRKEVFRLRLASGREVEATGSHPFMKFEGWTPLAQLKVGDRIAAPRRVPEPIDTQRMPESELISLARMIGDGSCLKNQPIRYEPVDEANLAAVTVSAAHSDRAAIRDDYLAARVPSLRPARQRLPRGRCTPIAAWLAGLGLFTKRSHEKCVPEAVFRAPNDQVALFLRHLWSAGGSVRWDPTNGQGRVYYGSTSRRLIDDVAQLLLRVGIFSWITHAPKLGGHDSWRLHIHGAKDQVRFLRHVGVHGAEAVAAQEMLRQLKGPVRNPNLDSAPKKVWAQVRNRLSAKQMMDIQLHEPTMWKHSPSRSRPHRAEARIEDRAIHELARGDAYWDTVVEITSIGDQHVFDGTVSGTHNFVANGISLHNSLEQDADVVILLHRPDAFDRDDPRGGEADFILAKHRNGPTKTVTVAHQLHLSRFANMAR

Vero = assay: viability of Vero cells under compound – cytotoxicity control for flavivirus capping enzyme inhibitors (AID 588742); assay type: functional; conditions: Chlorocebus sabaeus
Protein RecA = biological target: T2, Protein RecA (Mycobacterium tuberculosis, UniProt P9WHJ3); assay: Fluorescence Cell-Free Homogeneous Dose Retest to Identify Inhibitors of RecA-Intein Splicing Activity. [Related pubchem assays (depositor defined):AID2097, AID2223, AID489010, AID492950]; assay type: functional
T2 sequence (P9WHJ3 whole entry): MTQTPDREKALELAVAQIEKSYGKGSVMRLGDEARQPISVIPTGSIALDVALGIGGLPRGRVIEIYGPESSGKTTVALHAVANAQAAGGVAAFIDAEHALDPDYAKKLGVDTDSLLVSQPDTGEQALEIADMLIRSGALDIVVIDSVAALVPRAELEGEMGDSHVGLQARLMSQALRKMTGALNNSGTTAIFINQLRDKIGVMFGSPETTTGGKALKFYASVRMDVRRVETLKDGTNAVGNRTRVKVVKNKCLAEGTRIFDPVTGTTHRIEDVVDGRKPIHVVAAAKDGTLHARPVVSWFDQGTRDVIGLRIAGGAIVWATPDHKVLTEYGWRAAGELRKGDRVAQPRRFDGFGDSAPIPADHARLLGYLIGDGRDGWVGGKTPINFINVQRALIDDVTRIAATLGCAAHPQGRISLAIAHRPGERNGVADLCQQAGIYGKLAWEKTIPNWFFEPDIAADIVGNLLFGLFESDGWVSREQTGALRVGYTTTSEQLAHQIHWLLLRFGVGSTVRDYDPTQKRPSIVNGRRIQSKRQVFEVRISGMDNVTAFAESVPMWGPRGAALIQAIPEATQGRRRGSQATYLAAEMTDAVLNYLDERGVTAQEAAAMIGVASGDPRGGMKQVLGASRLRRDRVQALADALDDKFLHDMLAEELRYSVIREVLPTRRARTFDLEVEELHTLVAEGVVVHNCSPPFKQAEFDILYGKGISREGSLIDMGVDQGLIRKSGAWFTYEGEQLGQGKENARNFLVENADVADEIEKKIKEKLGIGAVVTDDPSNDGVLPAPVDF

Genome polyprotein = Genome polyprotein (dengue virus type 2, UniProt P29990); assay: flavivirus cap methylation enzyme inhibition – biochemical, confirmation dose response, primary screen (AID 588689); assay type: functional
[9] = biological target: T3, Polyadenylate-binding protein 1 (Homo sapiens, UniProt P11940); assay: MLLE binding blockers, Cy5 peptide tracer – biochemical, fluorescence polarization, Cy5-PAM2 peptide, secondary, miRNA deadenylation inhibitor project, dose response (AID 602260); assay type: functional; conditions: read-out: IC50_Mean
[10] = biological target: T3, Polyadenylate-binding protein 1; assay: MLLE domain peptide-binding blockers, IC50 – biochemical, fluorescence polarization, FITC-PAM2 peptide, dose response (AID 602259); assay type: functional; conditions: read-out: IC50_Mean
[11] = biological target: T4, Mannose-6-phosphate isomerase (Homo sapiens, UniProt P34949); assay: phosphomannose isomerase inhibition – biochemical, fluorescence intensity, confirmation (AID 1535)
T4 sequence (P34949 whole entry): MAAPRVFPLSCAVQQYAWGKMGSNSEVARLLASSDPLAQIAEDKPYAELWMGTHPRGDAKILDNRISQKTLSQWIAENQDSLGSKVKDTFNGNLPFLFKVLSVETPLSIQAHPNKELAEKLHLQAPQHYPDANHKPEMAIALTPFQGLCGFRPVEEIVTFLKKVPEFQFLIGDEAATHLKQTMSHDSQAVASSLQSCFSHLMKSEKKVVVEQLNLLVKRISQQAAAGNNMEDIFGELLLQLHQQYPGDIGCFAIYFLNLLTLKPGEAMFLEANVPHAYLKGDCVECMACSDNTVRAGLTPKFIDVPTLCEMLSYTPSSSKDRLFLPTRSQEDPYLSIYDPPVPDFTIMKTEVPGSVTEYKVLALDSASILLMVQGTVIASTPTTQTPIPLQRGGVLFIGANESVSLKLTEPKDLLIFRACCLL

Phosphomannomutase 2 = Phosphomannomutase 2 (Homo sapiens, UniProt O15305); assay: Counter screen SAR assay for PMM2 inhibitors via a fluorescence intensity assay. [Related pubchem assays (depositor defined):AID1545, AID1574]
[12] = biological target: T5, E3 ubiquitin-protein ligase XIAP (Homo sapiens, UniProt P98170); assay: Counter Screen using XIAP-Bir3 for Chemical Antagonists of Bir1/2 domains of IAP-family anti-apoptotic proteins. [Related pubchem assays (depositor defined):AID1018, AID1449, AID1514, AID1638, AID1749, AID1750, AID488957, AID488963]
[13] = biological target: T5, E3 ubiquitin-protein ligase XIAP; assay: small molecules displacing peptide from XIAP – biochemical, IAP family, fluorescence polarization (AID 1018); assay type: functional
[14] = HIV-1 Vif–A3G interaction blockers – biochemical, TR-FRET, GST-Vif 1-94, biotin-A3G peptide, dose response retest, primary screen (AID 1117319); assay type: functional;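 note: TR-FRET signal of purified GST-Vif binding a biotinylated A3G peptide; inhibitors lower the FRET signal by blocking Vif and A3G binding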
Bcl-2-related protein A1 = biological target: T6, Bcl-2-related protein A1 (Mus musculus, UniProt Q07440); assay type: functional;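 note: confirmatory dose–response counterscreen on Bfl-1, used to check hits from a UBC13 polyubiquitin inhibitor campaign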
T6 sequence (Q07440 whole entry): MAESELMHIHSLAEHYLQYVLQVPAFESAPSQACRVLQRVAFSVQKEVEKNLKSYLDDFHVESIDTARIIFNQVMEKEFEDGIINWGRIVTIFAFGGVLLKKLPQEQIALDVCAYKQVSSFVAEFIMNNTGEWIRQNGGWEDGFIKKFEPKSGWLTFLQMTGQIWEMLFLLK

[15] = biological target: T7, Ubiquitin-conjugating enzyme E2 N (Homo sapiens, UniProt P61088); assay type: functional
T7 sequence (P61088 whole entry): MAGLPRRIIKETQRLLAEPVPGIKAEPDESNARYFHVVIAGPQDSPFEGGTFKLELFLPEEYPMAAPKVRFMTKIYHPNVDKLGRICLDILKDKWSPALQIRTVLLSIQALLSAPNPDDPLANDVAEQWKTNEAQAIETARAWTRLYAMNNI

[16] = biological target: T7, Ubiquitin-conjugating enzyme E2 N; assay type: functional; remark: listed apart in the source
[17] = test system: Streptococcus sp. 'group A'; assay: Streptococcus pyogenes SK(-)GAS viability under kanamycin – luminescence, BacTiterGlo, confirmation, counter-screen for streptokinase expression inhibitor project, dose response (AID 1900); assay type: functional, organism-based
Streptokinase A = biological target: T8, Streptokinase A (Streptococcus pyogenes serotype M1, UniProt P10520); assay: viability-normalized secreted streptokinase activity reduction – plasminogen activation absorbance, OD405, dose response (AID 1914); assay type: functional, Streptococcus pyogenes M1 GAS;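 note: secreted streptokinase activity via plasminogen activation per viability signal from cell pellet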
T8 sequence (P10520 whole entry): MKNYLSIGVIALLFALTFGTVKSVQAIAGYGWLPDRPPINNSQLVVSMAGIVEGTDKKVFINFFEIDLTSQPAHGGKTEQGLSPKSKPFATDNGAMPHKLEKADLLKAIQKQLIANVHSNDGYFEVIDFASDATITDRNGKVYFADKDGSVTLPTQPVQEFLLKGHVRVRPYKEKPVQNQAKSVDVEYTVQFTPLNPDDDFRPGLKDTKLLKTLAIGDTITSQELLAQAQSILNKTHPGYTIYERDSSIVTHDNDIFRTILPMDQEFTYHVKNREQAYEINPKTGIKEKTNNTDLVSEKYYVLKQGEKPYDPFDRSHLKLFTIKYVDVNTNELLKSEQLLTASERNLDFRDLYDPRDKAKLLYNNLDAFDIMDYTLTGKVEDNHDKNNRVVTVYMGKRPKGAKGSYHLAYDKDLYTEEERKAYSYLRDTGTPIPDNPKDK

Streptococcus = assay: GAS UMAA2166 growth inhibition – luminescence, BacTiterGlo, counter-screen for streptokinase expression inhibitor project, dose response (AID 1915); assay type: functional, organism-based;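 note: potency for reduction of bacterial viability or growth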

T5 sequence (P98170 whole entry): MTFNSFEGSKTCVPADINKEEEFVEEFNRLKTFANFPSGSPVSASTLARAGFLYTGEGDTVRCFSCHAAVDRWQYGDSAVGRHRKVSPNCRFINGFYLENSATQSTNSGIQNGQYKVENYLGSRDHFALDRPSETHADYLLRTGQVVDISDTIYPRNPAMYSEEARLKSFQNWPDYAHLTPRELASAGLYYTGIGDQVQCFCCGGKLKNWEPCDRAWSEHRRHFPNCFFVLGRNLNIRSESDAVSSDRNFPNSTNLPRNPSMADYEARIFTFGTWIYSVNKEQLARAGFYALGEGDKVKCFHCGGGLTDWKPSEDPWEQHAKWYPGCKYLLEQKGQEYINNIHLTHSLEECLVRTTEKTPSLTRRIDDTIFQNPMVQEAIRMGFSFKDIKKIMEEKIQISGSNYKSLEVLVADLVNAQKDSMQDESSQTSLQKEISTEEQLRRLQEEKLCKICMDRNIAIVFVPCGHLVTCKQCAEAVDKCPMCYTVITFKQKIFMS
T3 sequence (P11940 whole entry, the tested form may be a part): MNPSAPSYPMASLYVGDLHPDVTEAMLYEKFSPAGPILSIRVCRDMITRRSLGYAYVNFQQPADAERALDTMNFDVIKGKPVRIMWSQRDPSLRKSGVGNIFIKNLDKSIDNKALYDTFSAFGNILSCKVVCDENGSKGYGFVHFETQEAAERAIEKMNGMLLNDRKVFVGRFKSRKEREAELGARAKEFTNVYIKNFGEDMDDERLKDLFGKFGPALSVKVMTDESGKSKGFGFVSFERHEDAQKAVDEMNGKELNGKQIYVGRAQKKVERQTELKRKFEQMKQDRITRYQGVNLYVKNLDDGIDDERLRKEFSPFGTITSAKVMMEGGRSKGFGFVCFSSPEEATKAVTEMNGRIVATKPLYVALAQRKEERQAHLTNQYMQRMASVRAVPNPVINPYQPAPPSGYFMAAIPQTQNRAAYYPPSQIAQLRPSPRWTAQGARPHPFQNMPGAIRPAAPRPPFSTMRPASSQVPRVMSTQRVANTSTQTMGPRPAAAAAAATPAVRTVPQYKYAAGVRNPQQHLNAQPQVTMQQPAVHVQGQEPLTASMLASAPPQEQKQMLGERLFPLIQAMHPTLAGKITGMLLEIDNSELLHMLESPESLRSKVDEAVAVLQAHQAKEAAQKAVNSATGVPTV
Chain of Phosphomannomutase 2 (O15305 whole entry): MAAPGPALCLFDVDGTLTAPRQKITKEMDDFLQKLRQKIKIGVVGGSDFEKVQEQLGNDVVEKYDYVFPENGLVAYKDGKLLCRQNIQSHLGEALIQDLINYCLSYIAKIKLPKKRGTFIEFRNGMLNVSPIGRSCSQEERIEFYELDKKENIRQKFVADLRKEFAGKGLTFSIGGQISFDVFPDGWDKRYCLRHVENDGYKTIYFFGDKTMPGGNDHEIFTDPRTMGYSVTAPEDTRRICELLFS
Chain of Genome polyprotein (P29990 2492-3391 limits assumed): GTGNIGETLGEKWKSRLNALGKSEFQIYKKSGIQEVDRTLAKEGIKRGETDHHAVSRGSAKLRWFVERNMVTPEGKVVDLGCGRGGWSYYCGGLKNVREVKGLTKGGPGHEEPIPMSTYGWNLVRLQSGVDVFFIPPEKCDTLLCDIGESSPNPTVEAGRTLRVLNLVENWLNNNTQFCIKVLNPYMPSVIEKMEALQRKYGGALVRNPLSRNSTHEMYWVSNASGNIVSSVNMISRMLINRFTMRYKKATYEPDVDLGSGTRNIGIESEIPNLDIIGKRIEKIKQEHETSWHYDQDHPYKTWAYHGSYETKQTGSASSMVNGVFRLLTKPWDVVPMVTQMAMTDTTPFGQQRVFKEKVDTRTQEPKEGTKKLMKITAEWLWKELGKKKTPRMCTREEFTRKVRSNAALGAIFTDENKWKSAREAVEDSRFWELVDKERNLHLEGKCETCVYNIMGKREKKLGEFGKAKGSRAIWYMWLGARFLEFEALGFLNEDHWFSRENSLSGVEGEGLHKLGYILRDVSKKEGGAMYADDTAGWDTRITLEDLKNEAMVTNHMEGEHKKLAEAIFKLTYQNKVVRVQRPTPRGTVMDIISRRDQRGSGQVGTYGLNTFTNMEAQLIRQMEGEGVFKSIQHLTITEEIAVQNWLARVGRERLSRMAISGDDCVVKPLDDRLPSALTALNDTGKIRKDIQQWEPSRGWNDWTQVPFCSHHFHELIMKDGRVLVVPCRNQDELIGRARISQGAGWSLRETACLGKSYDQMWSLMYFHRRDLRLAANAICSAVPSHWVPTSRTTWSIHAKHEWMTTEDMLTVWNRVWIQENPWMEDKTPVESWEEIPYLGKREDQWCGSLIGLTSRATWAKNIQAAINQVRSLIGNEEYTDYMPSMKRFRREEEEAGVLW
Chain of G-protein coupled receptor 55 (Q9Y2T6 whole entry): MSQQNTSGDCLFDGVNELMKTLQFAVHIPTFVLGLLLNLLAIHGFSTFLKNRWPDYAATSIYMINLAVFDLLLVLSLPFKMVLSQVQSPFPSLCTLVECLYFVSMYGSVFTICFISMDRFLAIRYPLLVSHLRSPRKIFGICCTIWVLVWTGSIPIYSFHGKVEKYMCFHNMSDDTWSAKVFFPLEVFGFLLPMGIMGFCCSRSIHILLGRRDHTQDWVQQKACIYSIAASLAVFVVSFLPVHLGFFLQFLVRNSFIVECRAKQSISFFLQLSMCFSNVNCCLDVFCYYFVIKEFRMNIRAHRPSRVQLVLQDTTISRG

With `O=C1/C(=C/c2ccncc2)SC(=S)N1C1CCS(=O)(=O)C1` (stereo not drawn) the IC50 [1] was 5.49 µM (active).
In the case of `O=[N+]([O-])c1cc([N+](=O)[O-])c2cc3ccccc3nc2c1`, the EC50 [2] is reported as > 120 µM (not active), the EC50 [3] is reported as > 120 µM (not active) and the EC50 (H4) is reported as 32 µM (active). For the same molecule, the CC50 [4] was 18.9 µM (active), the CC50 [5] was 5.67 µM (active) and the CC50 [6] was 14 µM (active). For the same molecule, the CC50 [7] was 12.7 µM (active), the IC50 (cells) was 0.39 µM (active) and the AC50 [8] was > 380 µM (inconclusive). The CC50 (Vero) was 10.1 µM (active), the EC50 (Protein RecA) was 1.17 µM (active) and the IC50 (Genome polyprotein) was 6.37 µM (active). The IC50 [9] was > 66 µM (inactive) and the IC50 [10] was > 66 µM (inactive).
With `COCCNP(=O)(c1ccccc1)c1nc2ccccc2s1` (stereo not drawn) the IC50 [11] was > 50 µM (inactive) and the IC50 (Phosphomannomutase 2) was > 100 µM (inactive).
For `O=C(O)CN1C(=O)COc2cc(S(=O)(=O)N3CCCC3)ccc21`, the IC50 [12] was > 100 µM (inactive), the IC50 [13] was > 100 µM (not active) and the IC50 [14] was > 100 µM (active).
In the case of `COc1ccc(/C=C/C(=O)Nc2c(C)nn(C)c2C)cc1COc1ccc(Cl)cc1Br`, the IC50 (Bcl-2-related protein A1) is reported as 3.32 µM (active), the IC50 [15] is reported as 15.6 µM (active) and the IC50 [16] is reported as 17.4 µM (active).
For `COc1ccc(CCNC(=O)CSc2nncn2N)cc1OC`, the EC50 [17] was > 150 µM (not active), the EC50 (Streptokinase A) was > 150 µM (not active) and the IC50 [12] was > 100 µM (inactive). For the same molecule, the IC50 [13] was > 100 µM (not active) and the EC50 (Streptococcus) was > 150 µM (not active).
